Reference: patent US20220305121A1, “N-ARYL SULFONAMIDE DERIVATIVES AS VACCINE ADJUVANT” (The Regents of the University of California, priority 2019, published 2022)

How the values were obtained:
Type in all cases: cell-based
NF-κB = assay: Measurement of NF-κB activation using THP1-Blue NF-κB cells (SEAP reporter, LPS as primary stimulus); details: compound 5 μM + LPS, 20 hour incubation; two point normalized: compound 1 + LPS = 200%, LPS = 100%; mean
Description: THP1-Blue™ NF-κB cells were plated in 96-well plates at 10^5 cells/well in 100 μl RPMI supplemented with 10% fetal bovine serum (FBS, Omega Scientific, Inc., Tarzana, Calif.), 100 U/mL penicillin, 100 μg/ml streptomycin (Thermo Fisher Scientific) and Normocin (Invivogen). LPS was prepared in assay medium at a concentration of 20 μg/mL. Tested compounds were dissolved in DMSO at 1 mM as a stock solution and were further diluted in the LPS solution to a final concentration of 10 μM. 100 μL of this solution was then transferred to the plated cells to obtain a final concentration of LPS at 10 μg/mL and compound at 5 μM ([…]). The culture supernatants were harvested after a 20 hour incubation period, SEAP activity in the culture supernatants was determined by a colorimetric assay using QuantiBlue (Invivogen). Plate absorbance was read at 630 nm using a Tecan Infinite M200 plate reader (Männedorf, Switzerland). The SEAP concentration was directly proportional to NF-κB activity, which was 2-point normalized to yield activity of compound 1+LPS as 200% and activity for LPS as 100%.
Measurement of NF-κB Activation Using THP1-Blue NF-κB Cells. THP1-Blue NF-κB cells were plated in 96-well plates at 10^5 cells/well in 100 μL of RPMI supplemented with 10% fetal bovine serum (FBS, Omega Scientific, Inc., Tarzana, Calif.), 100 U/mL penicillin, 100 μg/mL streptomycin (Thermo Fisher Scientific), and Normocin (Invivogen). LPS was prepared in assay medium at a concentration of 20 μg/mL. Tested compounds were dissolved in DMSO at 1 mM as a stock solution and were further diluted in the LPS solution to a final concentration of 10 μM. 100 μL of this solution was then transferred to the plated cells to obtain a final concentration of LPS at 10 μg/mL and compound at 5 μM ([…]). The culture supernatants were harvested after a 20 hours incubation period. SEAP activity in the culture supernatants was determined by a colorimetric assay using QuantiBlue (Invivogen). Plate absorbance was read at 630 nm using a Tecan Infinite M200 plate reader (Mannedorf, Switzerland). The SEAP concentration was directly proportional to NF-κB activity, which was two-point normalized to yield activity of compound 1+LPS as 200% and activity for LPS as 100%.

ISRE = assay: Measurement of ISRE activity in ISRE-bla THP-1 cells (FRET, IFN-α as primary stimulus); details: compound 5 μM + IFN-α 100 U/mL, 16 hours, two point normalized: compound 1 + IFN-α = 200%, IFN-α = 100%, mean; for activity at 5 µM: Homo sapiens, THP-1, read-out: ISRE % Activation
Description: ISRE-bla THP-1 cells were plated in 96-well plates at 5×10^4 cells/well in 50 μl RPMI supplemented with 10% dialyzed FBS (Atlanta Biologicals, Inc., GA), 0.1 mM nonessential amino acids, 1 mM sodium pyruvate, 100 U/mL penicillin and 100 μg/ml streptomycin. Type I IFN-α (R&D Systems, #11200-2) solution was prepared in assay medium at a concentration of 200 U/mL Tested compounds were dissolved in DMSO at 1 mM and were further diluted in the IFN-α solution to a final concentration of 10 μM. 50 μL of this solution was then transferred to the plated cells to obtain a final concentration of IFN-α at 100 U/mL and compound at 5 μM ([…]), The cells were incubated for 16 hours, after which 20 μL of 6×LiveBLAzer™ FRET B/G Substrate (CCF4-AM) mixture (prepared according to the manufacturer's instructions) was added to each well, Plates were incubated at room temperature in the dark for 3 hours. Fluorescence was measured on a Tecan Infinite M200 plate reader at an excitation wavelength of 405 nm, and emission wavelengths of 465 nm and 535 nm. Background values (cell free wells at the same fluorescence wavelength) were subtracted from the raw fluorescence intensity values and the emission ratios were calculated as the ratio of background subtracted fluorescence intensities at 465 nm to background subtracted fluorescence intensities at 535 nm. The ISRE activity values for these compounds were 2-point normalized to yield activity of compound 1+IFN-α as 200% and activity for IFN-α as 100%.
Measurement of ISRE Activity in ISRE-bla THP-1 Cells. ISREbla THP-1 cells were plated in 96-well plates at 5×10^4 cells/well in 50 μL of RPMI supplemented with 10% dialyzed FBS (Atlanta Biologicals, Inc., GA), 0.1 mM nonessential amino acids, 1 mM sodium pyruvate, 100 U/mL penicillin, and 100 μg/mL streptomycin. Type I IFN-α (R&D Systems, no. 11200-2) solution was prepared in assay medium at a concentration of 200 U/mL. Tested compounds were dissolved in DMSO at 1 mM and were further diluted in the IFN-α solution to a final concentration of 10 μM. 50 μL of this solution was then transferred to the plated cells to obtain a final concentration of IFN-α at 100 U/mL and compound at 5 μM ([…]). The cells were incubated for 16 hours, after which 20 μL of 6×LiveBLAzer FRET B/G substrate (CCF4-AM) mixture (prepared according to the manufacturer's instructions) was added to each well. Plates were incubated at room temperature in the dark for 3 hours. Fluorescence was measured on a Tecan Infinite M200 plate reader at an excitation wavelength of 405 nm and emission wavelengths of 465 and 535 nm. Background values (cell free wells at the same fluorescence wavelength) were subtracted from the raw fluorescence intensity values and the emission ratios were calculated as the ratio of background subtracted fluorescence intensities at 465 nm to background subtracted fluorescence intensities at 535 nm. The ISRE activity values for these compounds were two-point normalized to yield activity of compound 1+IFN-α as 200% and activity for IFN-α as 100%.

THP-1 cells = assay: Cell viability assay (MTT); details: compound 5 μM, 18 hours incubation; normalized to DMSO as 100%; mean
Description: THP-1 cells were plated in 96-well plates (10^5 cells/well) in 100 μL RPMI supplemented with 10% FBS, 100 U/mL penicillin and 100 μg/ml streptomycin. Compounds were dissolved in DMSO at 1 mM stock solution and were further diluted to 10 μM in the assay medium. 100 μL of this solution was added to the cells to obtain a final compound concentration of 5 μM ([…]). After 18 hours incubation, a solution of MTT in assay media (0.5 mg/mL) was added to each well and further incubated for 4 to 6 hours, followed by addition of cell lysis buffer (15% w/v SDS and 0.12% v/v 12N HCl aqueous solution), incubated overnight, and then absorbance measured at 570 nm using 650 nm as reference using Tecan Infinite M200 plate reader.
Cell Viability Assay. THP-1 cells were plated in 96-well plates (10^5 cells/well) in 100 μL RPMI supplemented with 10% FBS, 100 U/mL penicillin, and 100 μg/mL streptomycin. Compounds were dissolved in DMSO at 1 mM stock solution and were further diluted to 10 μM in the assay medium. 100 μL of this solution was added to the cells to obtain a final compound concentration of 5 μM ([…]). After 18 h incubation, a solution of MTT in assay media (0.5 mg/mL) was added to each well and further incubated for 4-6 hours, followed by addition of cell lysis buffer (15% w/v SDS and 0.12% v/v 12 N HCl aqueous solution), incubation overnight, and then absorbance was measured at 570 nm using 650 nm as reference using Tecan Infinite M200 plate reader.

Compound | activity at 5 µM (NF-κB) [%] | activity at 5 µM (ISRE) [%] | MTT % Viability (THP-1 cells) [%] | NF-κB % Activation (NF-κB) [%] | ISRE % Activation (ISRE) [%]
COc1cc(NS(=O)(=O)c2ccc([N+](=O)[O-])cc2)c(OC)cc1Cl [Compound 17, N-(4-chloro-2,5-dimethoxyphenyl)-4-nitrobenzenesulfonamide] | 101 | 103 | 97.4 |  | 
COC(=O)c1ccc(S(=O)(=O)Nc2cc(OC)c(Cl)cc2OC)cc1 [Compound 26, Methyl 4-(N-(4-chloro-2,5-dimethoxyphenyl)sulfamoyl)benzoate] | 191 | 202 | 74.4 |  | 
CCCCN(c1cc(OC)c(Cl)cc1OC)S(=O)(=O)c1ccc(OCC)cc1 [Compound 35, N-(4-chloro-2,5-dimethoxyphenyl)-4-ethoxy-N-butylbenzenesulfonamide] | 192 | 156 | 77.7 |  | 
CCOc1ccc(S(=O)(=O)N(CCCC(=O)O)c2cc(OC)c(Cl)cc2OC)cc1 [Compound 53, 4-((N-(4-chloro-2,5-dimethoxyphenyl)-4-ethoxyphenyl)sulfonamido)butanoic acid] | 230 | 151 | 73.4 |  | 
CCOc1ccc(S(=O)(=O)Nc2cc(OC)c([N+](=O)[O-])cc2OC)cc1 [Compound 9, N-(2,5-dimethoxy-4-nitrophenyl)-4-ethoxybenzenesulfonamide] | 133 | 110 | 79.2 |  | 
COc1cc(NS(=O)(=O)c2ccc(CN)cc2)c(OC)cc1Cl [Compound 21, 4-(aminomethyl)-N-(4-chloro-2,5-dimethoxyphenyl)benzenesulfonamide] | 103 | 111 | 97.0 |  | 
CCCCCN(c1cc(OC)c(Cl)cc1OC)S(=O)(=O)c1ccc(OCC)cc1 [Compound 36, N-(4-chloro-2,5-dimethoxyphenyl)-4-ethoxy-N-pentylbenzenesulfonamide] | 135 | 105 | 72.9 |  | 
C#CCCCN(c1cc(OC)c(Cl)cc1OC)S(=O)(=O)c1ccc(OCC)cc1 [Compound 44, N-(4-chloro-2,5-dimethoxyphenyl)-4-ethoxy-N-(pent-4-yn-1-yl) benzenesulfonamide] |  |  | 70.7 | 182 | 184
COc1cc(NS(=O)(=O)c2ccc(N)cc2)c(OC)cc1Cl [Compound 18, 4-Amino-N-(4-chloro-2,5-dimethoxyphenyl)benzenesulfonamide] | 101 | 103 | 96.0 |  | 
C#CCN(c1cc(OC)c(Cl)cc1OC)S(=O)(=O)c1ccc(OCC)cc1 [Compound 42, N-(4-chloro-2,5-dimethoxyphenyl)-4-ethoxy-N-(prop-2-yn-1-yl) benzenesulfonamide] |  |  | 72.0 | 232 | 213
CCCCCCN(c1cc(OC)c(Cl)cc1OC)S(=O)(=O)c1ccc(OCC)cc1 [Compound 37, N-(4-chloro-2,5-dimethoxyphenyl)-4-ethoxy-N-hexylbenzenesulfonamide] | 81 | 99 | 95.2 |  | 
CCOC(=O)CCCN(c1cc(OC)c(Cl)cc1OC)S(=O)(=O)c1ccc(OCC)cc1 [Compound 50, Ethyl 4-((N-(4-chloro-2,5-dimethoxyphenyl)-4-ethoxyphenyl)sulfonamido)butanoate] | 199 | 199 | 80.1 |  | 
COc1cc(NS(=O)(=O)c2ccc(C#N)cc2)c(OC)cc1Cl [Compound 19, N-(4-chloro-2,5-dimethoxyphenyl)-4-cyanobenzenesulfonamide] | 97 | 106 | 102.9 |  | 
CCCN(c1cc(OC)c(Cl)cc1OC)S(=O)(=O)c1ccc(OCC)cc1 [Compound 34, N-(4-chloro-2,5-dimethoxyphenyl)-4-ethoxy-N-propylbenzenesulfonamide] | 227 | 199 | 71.6 |  | 
CCOc1ccc(S(=O)(=O)Nc2cc(OC)c(N)cc2OC)cc1 [Compound 10, N-(4-amino-2,5-dimethoxyphenyl)-4-ethoxybenzenesulfonamide] | 101 | 102 | 92.2 |  | 
CCCCCCCN(c1cc(OC)c(Cl)cc1OC)S(=O)(=O)c1ccc(OCC)cc1 [Compound 38, N-(4-chloro-2,5-dimethoxyphenyl)-4-ethoxy-N-heptylbenzenesulfonamide] | 108 | 95 | 90.4 |  | 
CCOc1ccc(S(=O)(=O)N(CCCN)c2cc(OC)c(N=[N+]=[N-])cc2OC)cc1 [Compound 63, N-(3-aminopropyl)-N-(4-azido-2,5-dimethoxyphenyl)-4-ethoxybenzenesulfonamide] |  |  | 68.9 |  | 
